From patent publication US10717716B2, “1,3,4-oxadiazole derivative compounds as histone deacetylase 6 inhibitor, and the pharmaceutical composition comprising the same” (Chong Kun Dang Pharmaceutical Corp., priority 2015, dated 2020)

Target: T1, human recombinant HDAC6 (Homo sapiens, UniProt Q9UBN7)
T1 construct: purchased Calbiochem 382180
T1 sequence (Q9UBN7 1-1215): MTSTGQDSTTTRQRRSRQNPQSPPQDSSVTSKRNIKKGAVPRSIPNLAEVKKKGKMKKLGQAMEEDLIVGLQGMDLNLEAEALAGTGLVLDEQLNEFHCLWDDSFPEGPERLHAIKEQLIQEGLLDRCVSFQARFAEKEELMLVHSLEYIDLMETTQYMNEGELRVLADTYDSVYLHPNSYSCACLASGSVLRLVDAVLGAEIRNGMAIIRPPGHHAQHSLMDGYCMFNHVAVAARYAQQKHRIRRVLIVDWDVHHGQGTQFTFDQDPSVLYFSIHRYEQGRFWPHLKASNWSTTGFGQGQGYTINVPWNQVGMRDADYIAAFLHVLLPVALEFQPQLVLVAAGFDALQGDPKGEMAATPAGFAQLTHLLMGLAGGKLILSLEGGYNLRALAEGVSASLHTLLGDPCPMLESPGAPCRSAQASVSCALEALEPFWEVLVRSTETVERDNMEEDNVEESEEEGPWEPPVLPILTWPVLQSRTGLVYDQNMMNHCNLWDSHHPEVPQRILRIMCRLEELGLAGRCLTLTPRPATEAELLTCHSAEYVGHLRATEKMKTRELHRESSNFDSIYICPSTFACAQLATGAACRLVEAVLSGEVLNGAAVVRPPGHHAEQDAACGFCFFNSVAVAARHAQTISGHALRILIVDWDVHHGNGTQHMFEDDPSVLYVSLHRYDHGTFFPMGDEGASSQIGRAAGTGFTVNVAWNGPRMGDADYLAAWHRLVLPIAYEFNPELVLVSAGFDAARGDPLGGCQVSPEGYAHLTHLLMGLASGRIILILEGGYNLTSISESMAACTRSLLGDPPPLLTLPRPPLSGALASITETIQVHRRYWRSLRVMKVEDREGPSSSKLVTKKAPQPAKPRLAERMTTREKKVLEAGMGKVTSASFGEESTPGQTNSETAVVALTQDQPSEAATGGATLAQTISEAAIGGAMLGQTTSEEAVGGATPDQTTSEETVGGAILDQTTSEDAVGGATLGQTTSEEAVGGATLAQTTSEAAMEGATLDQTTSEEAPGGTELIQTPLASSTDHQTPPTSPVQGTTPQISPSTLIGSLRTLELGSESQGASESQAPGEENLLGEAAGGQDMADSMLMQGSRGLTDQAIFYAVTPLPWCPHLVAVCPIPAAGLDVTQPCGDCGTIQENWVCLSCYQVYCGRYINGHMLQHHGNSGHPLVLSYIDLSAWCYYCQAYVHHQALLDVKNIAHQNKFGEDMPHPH
Experiment: HDAC6 enzyme activity inhibition assay (HDAC Fluorimetric Drug Discovery Kit)
Format: biochemical
Conditions: for HDAC6 selectivity (fold): HDAC6 over HDAC1; for IC50: human recombinant HDAC6, same protocol as HDAC1, read-out: HDAC6
Protocol: In order to examine the HDAC6 selectivity of the compounds of formula I of the present invention by HDAC1 and HDAC6 enzymatic activity inhibition assays, an experiment was performed using a conventional substance as a control.
HDAC enzyme activity was measured using a HDAC Fluorimetric Drug Discovery Kit (BML-AK511, 516, Enzo Life Science). For the HDAC1 enzyme activity test, human recombinant HDAC1 (BML-SE456) was used as an enzyme source, and Fluor de Lys®-“SIRT1 (BNL-KI177) was used as a substrate. A 5-fold dilution of the compound was seeded into a 96-well plate, and then 0.3 μg of the enzyme and 10 μM of the substrate were added to each well of the plate and allowed to react at 30° C. for 60 minutes. Then, Fluor de Lys®-Developer II (BML-KI176) was added thereto and allowed to react for 30 minutes, after which the fluorescence value (Ex 360, Em 460) was measured using a multi-plate reader (Flexstation 3, Molecular Device). The HDAC6 enzyme was tested using human recombinant HDAC6 (382180) (Calbiochem) according to the same protocol as the HDAC1 enzyme activity test method. Based on the resulting values, each IC5, value was calculated using GraphPad Prism4.0 program.

Compound	HDAC6 selectivity (fold)	IC50 [nM]
O=C(NCCN1CCN(c2ccccc2)CC1)N(Cc1ccc(-c2nnc(C(F)F)o2)cc1F)c1ccccc1 [Compound 22007, 1-(4-(5-(Difluoromethyl)-1,3,4-oxadiazol-2-yl)-2-fluorobenzyl)-1-phenyl-3-(2-(4-phenylpiperazin-1-yl)ethyl)urea]	40	249
O=C(N1CCOCC1)N(Cc1ncc(-c2nnc(C(F)F)o2)cn1)c1ccccc1 [Compound 21532, N-((5-(5-(difluoromethyl)-1,3,4-oxadiazol-2-yl)pyrimidin-2-yl)methyl)-N-phenylmorpholine-4-carboxamide]	208	48
O=C(N1CCS(=O)(=O)CC1)N(Cc1ccc(-c2nnc(C(F)F)o2)cc1)c1ccccc1 [Compound 21360, N-(4-(5-(difluoromethyl)-1,3,4-oxadiazol-2-yl)benzyl)-N-phenylthiomorpholine-4-carboxamide 1,1-dioxide]	282	35.4
O=C(N1CCS(=O)(=O)CC1)N(Cc1ccc(-c2nnc(C(F)F)o2)cc1)c1ccc(-c2ccoc2)cc1 [Compound 21492, N-(4-(5-(difluoromethyl)-1,3,4-oxadiazol-2-yl)benzyl)-N-(4-(furan-3-yl)phenyl)thiomorpholine-4-carboxamide 1,1-dioxide]	278	36
O=C(N1CCOCC1)N(Cc1ccc(-c2nnc(C(F)(F)F)o2)cc1F)c1ccccc1 [Compound 21318, N-(2-fluoro-4-(5-(trifluoromethyl)-1,3,4-oxadiazol-2-yl)benzyl)-N-phenylmorpholine-4-carboxamide]	145	69
CC(C)(C)N1CCN(C(=O)N(Cc2ccc(-c3nnc(C(F)F)o3)cc2F)c2ccccc2)CC1 [Compound 21383, 4-(Tert-butyl)-N-(4-(5-(difluoromethyl)-1,3,4-oxadiazol-2-yl)-2-fluorobenzyl)-N-phenylpiperazine-1-carboxamide]	200	50
O=C(N1CCNCC1)N(Cc1ccc(-c2nnc(C(F)(F)F)o2)cc1)c1ccccc1 [Compound 21362, N-phenyl-N-(4-(5-(trifluoromethyl)-1,3,4-oxadiazol-2-yl)benzyl)piperazine-1-carboxamide]	180	55.7
CC(=O)N1CCCN(C(=O)N(Cc2ccc(-c3nnc(C(F)(F)F)o3)cc2)c2ccccc2)CC1 [Compound 21422, 4-Acetyl-N-phenyl-N-(4-(5-(trifluoromethyl)-1,3,4-oxadiazol-2-yl)benzyl)-1,4-diazepane-1-carboxamide]	95	105
O=C(N1CCS(=O)(=O)CC1)N(Cc1ccc(-c2nnc(C(F)F)o2)cc1)c1ccc(-c2cccnc2)cc1 [Compound 21490, N-(4-(5-(difluoromethyl)-1,3,4-oxadiazol-2-yl)benzyl)-N-(4-(pyridin-3-yl)phenyl)thiomorpholine-4-carboxamide 1,1-dioxide]	270	37
CS(=O)(=O)N1CCN(C(=O)N(Cc2ccc(-c3nnc(C(F)(F)F)o3)cc2)c2ccccc2)CC1 [Compound 21363, 4-(Methylsulfonyl)-N-phenyl-N-(4-(5-(trifluoromethyl)-1,3,4-oxadiazol-2-yl)benzyl)piperazine-1-carboxamide]	118	84.8
CN1CC2(CCN(C(=O)N(Cc3ccc(-c4nnc(C(F)F)o4)cc3F)c3ccccc3)CC2)C1 [Compound 21496, N-(4-(5-(difluoromethyl)-1,3,4-oxadiazol-2-yl)-2-fluorobenzyl)-2-methyl-N-phenyl-2,7-diazaspiro[3.5]nonane-7-carboxamide]	500	20
CC(=O)N1CCC2(CC1)CN(C(=O)N(Cc1ccc(-c3nnc(C(F)F)o3)cc1F)c1ccccc1)C2 [Compound 21500, 7-Acetyl-N-(4-(5-(difluoromethyl)-1,3,4-oxadiazol-2-yl)-2-fluorobenzyl)-N-phenyl-2,7-diazaspiro[3.5]nonane-2-carboxamide]	400	25

The next lines start with the values.

HDAC6 selectivity (fold)	IC50 [nM]	Compound
160	62	O=C(N1CCN(C2COC2)CC1)N(Cc1ccc(-c2nnc(C(F)F)o2)cc1)c1cccc(Cl)c1 [Compound 21942, N-(3-Chlorophenyl)-N-(4-(5-(difluoromethyl)-1,3,4-oxadiazol-2-yl)benzyl)-4-(oxetan-3-yl)piperazine-1-carboxamide]
37	270	CCN(CCNC(=O)N(Cc1ccc(-c2nnc(C(F)F)o2)cc1F)c1ccccc1)Cc1ccccc1 [Compound 22006, 3-(2-(Benzyl(ethyl)amino)ethyl)-1-(4-(5-(difluoromethyl)-1,3,4-oxadiazol-2-yl)-2-fluorobenzyl)-1-phenylurea]
64	157	COc1cccc(N(Cc2ccc(-c3nnc(C(F)F)o3)cn2)C(=O)N2CCN(C3COC3)CC2)c1 [Compound 21950, N-((5-(5-(Difluoromethyl)-1,3,4-oxadiazol-2-yl)pyridin-2-yl)methyl)-N-(3-methoxyphenyl)-4-(oxetan-3-yl)piperazine-1-carboxamide]
261	38	O=C(N1CCS(=O)(=O)CC1)N(Cc1ccc(-c2nnc(C(F)F)o2)cc1F)c1ccc(F)cc1 [Compound 21806, N-(4-(5-(difluoromethyl)-1,3,4-oxadiazol-2-yl)-2-fluorobenzyl)-N-(4-fluorophenyl)thiomorpholine-4-carboxamide 1,1-dioxide]
85	118	CN(C)CCCN1CCN(CCNC(=O)N(Cc2ccc(-c3nnc(C(F)F)o3)cc2F)c2ccccc2)CC1 [Compound 22002, 1-(4-(5-(Difluoromethyl)-1,3,4-oxadiazol-2-yl)-2-fluorobenzyl)-3-(2-(4-(3-(dimethylamino)propyl)piperazin-1-yl)ethyl)-1-phenylurea]
46	216	CN(C)[C@@H]1CCN(C(=O)N(Cc2ccc(-c3nnc(C(F)(F)F)o3)cc2F)c2cccc(Cl)c2F)C1 [Compound 21645, (R)—N-(3-chloro-2-fluorophenyl)-3-(dimethylamino)-N-(2-fluoro-4-(5-(trifluoromethyl)-1,3,4-oxadiazol-2-yl)benzyl)pyrrolidine-1-carboxamide]
256	39	O=C(N1CCS(=O)(=O)CC1)N(Cc1ccc(-c2nnc(C(F)F)o2)cc1F)c1cccc(F)c1 [Compound 21807, N-(4-(5-(difluoromethyl)-1,3,4-oxadiazol-2-yl)-2-fluorobenzyl)-N-(3-fluorophenyl)thiomorpholine-4-carboxamide 1,1-dioxide]
383	26	CN1CCN(C(=O)N(Cc2ccc(-c3nnc(C(F)F)o3)cn2)c2ccc(F)c(Cl)c2)CC1 [Compound 21620, N-(3-chloro-4-fluorophenyl)-N-((5-(5-(difluoromethyl)-1,3,4-oxadiazol-2-yl)pyridin-2-yl)methyl)-4-methylpiperazine-1-carboxamide]
218	46	CCN1CCN(C(=O)N(Cc2ccc(-c3nnc(C(F)F)o3)cc2F)c2ccc(F)cc2)CC1 [Compound 21887, N-(4-(5-(Difluoromethyl)-1,3,4-oxadiazol-2-yl)-2-fluorobenzyl)-4-ethyl-N-(4-fluorophenyl)piperazine-1-carboxamide]
